Experimental data reported in US20240140983A1, “SINGLE STRANDED DNA ENZYME INHIBITORS” (MASSEY UNIVERSITY, priority 2021, published 2024).

How the values were obtained:
[1] = target: T1, wild-type APOBEC3A (Homo sapiens, UniProt P31941); assay: NMR assay: wild-type APOBEC3A-catalysed deamination of dC-hairpin-3, Lambert's W function; type: biochemical; settings: pH 7.4, 140 nM enzyme, 500 μM dC-hairpin-3
T1 construct: His7 (C); made in house
Description: Inhibitors were tested in the NMR assay monitoring APOBEC3A-catalysed deamination of dC-hairpin-3. Deamination data was analysed using Lambert's W function as described in Example 5.

[2] = tested on: A3BCTD-QM-ΔL3-AL1swap; assay: NMR assay: inhibition of A3BCTD-QM-ΔL3-AL1swap-catalyzed deamination of a linear substrate (initial rates); type: biochemical, human; settings: for Ki / Vmax: 5′-AT3dCAT3 substrate, 50 nM enzyme; for inhibition effect: Km of 5′-AT3dCAT3 (150 μM) compared with apparent Ki: non-linear regression analysis
Description: FIG. 6. is a set of graphs showing inhibition of A3BCTD-QM-ΔL3-AL1swap-catalyzed deamination of 5′-T4CAT by dZ/FdZ-containing linear and cross-linked oligos. Initial rate of deamination was measured under the following experimental conditions: 400 μM of 5′-T4CAT, 8 μM (A, B) or 4 μM (C) of dZ/FdZ-containing oligos, 300 nM (A, B) or 200 nM (C) of A3BCTD-QM-ΔL3-AL1swap in a 50 mM sodium phosphate buffer (pH 6.0) containing 100 mM NaCl, 2.5 mM β-mercaptoethanol, 0.1 M EDTA, 50 μM 3-(trimethylsilyl)-2,2,3,3-tetradeuteropropionic acid (TSP) at 25° C. Error bars are estimated standard deviations from triplicate measurements.
FIG. 13 is a graph showing the inhibition of A3BCTD-QM-ΔL3-AL1swap-catalyzed deamination of 5′-T4CAT by linear oligos containing dZ, 34R, 34S and 46. Initial rate of deamination was measured under the following experimental conditions: 400 μM of 5′-T4CAT, at oligo concentration as indicated, 300 nM of A3BCTD-QM-ΔL3-AL1swap in a 50 mM sodium phosphate buffer (pH 6.0) containing 100 mM NaCl, 2.5 mM β-mercaptoethanol, 0.1 M EDTA, 50 μM 3-(trimethylsilyl)-2,2,3,3-tetradeuteropropionic acid (TSP) and 20% D2O at 25° C. Error bars are estimated standard deviations from triplicate measurements.
The inhibition potential of cross-linked oligos was investigated by changing dC to dZ or FdZ in these constructs. The NMR assay described in Example 4 was used to compare the internally cross-linked dZ/FdZ-containing oligos with a linear DNA inhibitor containing dZ/FdZ (dZ-linear is 5′-AT3dZAT3, FdZ-linear is 5′-AT3FdZAT3) that were characterized earlier.^1-2 Residual activity of A3BCTD-QM-ΔL3-AL1swap on the unmodified oligo (5′-T4dCAT) as a substrate in the presence of a known concentration of dZ/FdZ-containing inhibitors (linear and cross-linked) was measured using NMR assay.
(§1) For determination of inhibition constants (KI) of inhibitors the inventors first evaluated kinetic parameters of A3BCTD-QM-ΔL3-AL1swap on two DNA substrates (Table 5), which were used to detect the residual deamination rate in the presence of inhibitors (Table 6). Fitting the experimental data by non-linear least squares using a global fit provided similar values of kinetic parameters to those obtained by the linearized Lineweaver-Burk plot (Table 5). Then, the inhibition constants for strongest cross-linked inhibitors were calculated by several methods assuming a competitive mode of inhibition^1 (Table 6) based on experiments in which the concentration of the individual inhibitor was varied, and the residual deamination initial rate was measured.
Residual activity of A3BCTD-QM-ΔL3-AL1swap on the unmodified oligo (5′-T4CAT) as a substrate in the presence of a known concentration of inhibitors was measured using the NMR assay as described in Example 5.

[3] = target: A3BCTD-QM-ΔL3-AL1swap; assay: Isothermal titration calorimetry (ITC), binding to A3BCTD-QM-ΔL3-AL1swap; design: species or system human; settings: ITC buffer 3 (Na+/K+ phosphate, pH 6.0, 200 mM trimethylamine N-oxide), 25° C
Source text: (§2) The inventors used isothermal titration calorimetry (ITC) to determine binding of the cross-linked oligos to A3 enzymes, specifically to A3A-E72A, where the active-site glutamic acid is replaced with alanine, and to the catalytically competent A3BCTD-QM-ΔL3-AL1swap and compared this binding to that of linear oligos.
For oligos containing dZ, catalytically active A3BCTD-QM-ΔL3-AL1swap was used, as it has the active-site glutamic acid required for protonation of N3 in dZ, which activates C4 in dZ to accept nucleophilic OH^−/H2O coordinated to the Zn^2+, which converts dZ into a transition-state or an intermediate analogue of cytidine deamination.^8
For A3BCTD-QM-ΔL3-AL1swap we used ITC buffer 3: 50 mM Na^+/K^+ phosphate, pH 6.0, 200 mM trimethylamine N-oxide dihydrate, 2.5 mM TCEP, 200 μM EDTA. Data evaluation was performed with the software provided by the supplier of MicroCal ITC200.

[4] = target: human CDA (Homo sapiens, UniProt P32320); assay: UV-Vis based deamination assay against human CDA; type: biochemical; settings: 27 nM human CDA; for Ki: 2 mM dC, absorbance at 286 nm, Lambert's W function
Sequence of human CDA (P32320 whole entry): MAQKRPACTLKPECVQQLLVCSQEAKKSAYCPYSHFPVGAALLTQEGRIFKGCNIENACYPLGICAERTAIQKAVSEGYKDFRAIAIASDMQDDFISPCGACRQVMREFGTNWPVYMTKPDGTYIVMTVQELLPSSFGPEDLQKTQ
Description: FIG. 12 is a graph showing the initial rate of human CDA-catalysed deamination of 2′-deoxycytidine (dC) in the absence (no inhibitor) and presence of dZ, 34R and 34S. Conditions: 100 μM dC as a substrate, using different concentrations of inhibitors, 27 nM human CDA in 20 mM Na-phosphate buffer, pH 6.0 supplemented with 100 mM NaCl at 25° C. Absorbance was measured at 286 nm at the start of deamination. Samples labelled as “preincubated” refer to experiments when the enzyme was preincubated for 5 min with inhibitors and then 100 μM dC was added.
The seven-membered ring-containing nucleosides synthesized were tested for their inhibition potential against human CDA enzyme by a UV-Vis based deamination assay. All data were obtained by monitoring absorbance of 2′-deoxycytidine at 286 nm and 25° C., where the deamination of cytosine leads to a decrease in absorption. For nucleosides 34R and 34S, the condition of the assay used was 27 nM human CDA and 100 μM dC as a substrate in 20 mM Na-phosphate buffer, 100 mM NaCl at pH 6.0; an average of 8 measurements was done for each nucleoside. As the original 7-membered ring nucleosides were reported as slow-binding inhibitors of CDA,^10 preincubation conditions of an inhibitor with CDA were also tested for the assay and labelled as ‘preincubation’. Here, the nucleosides were preincubated with the enzyme for 5 min and then 100 μM dC substrate was added to start the measurements (FIG. 12).

[5] = tested on: A3BCTD-QM-ΔL3-AL1swap; assay: Real-time NMR assay: deamination of DNA substrates by A3BCTD-QM-ΔL3-AL1swap; type: biochemical, human
Description: FIG. 5 is a set of graphs showing the initial rate of A3BCTD-QM-ΔL3-AL1swap catalyzed deamination of terminally (A), internally (B-D) cross-linked oligos and a dC-hairpin in comparison with the linear substrate. Substrate concentrations are 100 μM in (A and B), 800 μM in (C) and 400 μM in (D). Enzyme concentrations are 50 nM in (A and B) and 300 nM in (C) and 100 nM in (D). Buffers are 50 mM citrate-phosphate (pH 5.5 for A-C) and 50 mM Na-phosphate (pH 6.0 for D), 200 mM NaCl, 2 mM β-mercaptoethanol, 200 μM 4,4-dimethyl-4-silapentane-1-sulfonic acid (DSS) and 10% D2O at 25° C. Error bars are estimated standard deviations from triplicate measurements.
Real-time NMR assays are advantageous because they are direct, utilizing only A3 enzymes and oligos in a suitable buffer system, in contrast to many fluorescence-based assays where a secondary enzyme and a fluorescently modified oligo are used. The NMR-based assay described herein allows a Michaelis-Menten kinetic model to be used to characterize both A3 substrates and inhibitors based on direct determination of the initial velocity of deamination of various ssDNA substrates (including modified substrates) in the presence of A3 enzymes.
The A3 enzyme used in the experiments detailed herein is the well-characterized and very active A3BCTD-QM-ΔL3-AL1swap,^1 where loop 3 is deleted and loop 1 is replaced with the corresponding loop 1 from A3A in addition to four point mutations remote to the enzyme's active site. […] Recent work by the inventors on the related enzyme, A3G, has shown that inhibition of the C-terminal catalytic domain is mirrored by the inhibition of the full-length enzyme, validating their approach of using catalytic C-terminal domains for inhibitor development.^2
Using the 9-mer oligonucleotide ATTTCATTT (5′-AT3dCAT3) (SEQ ID NO: 1) as the standard substrate, the inventors compared the deamination of both terminally and internally cross-linked oligos prepared as above using a previously described real-time NMR assay.^1, 45 For the terminally cross-linked oligos, decreased rates of deamination were observed from 9-mer to 5-mer. The number of phosphates of the modified 9-mer sequence is the same as for the 9-mer DNA control (FIG. 5A). […] The next internal cross-link 2 was designed based on modified nucleotides dU^E and dA^N3. […] However, a marked 2.3 times increase in deamination rate was detected for oligo dC[C^N3(−2),H^E1(+1)]X having internal cross-link 3 connecting −2 and +1 positions in the DNA sequence (FIG. 5D). It is surprising that synthetic oligo dC[C^N3(−2),H^E1(+1)]X was deaminated even faster than a native DNA hairpin.
as §1

[6] = target: A3A-E72A (Homo sapiens, UniProt P31941, E72A); assay: Isothermal titration calorimetry (ITC), binding to A3A-E72A; settings: 25° C
Sequence of A3A-E72A (P31941 whole entry E72A): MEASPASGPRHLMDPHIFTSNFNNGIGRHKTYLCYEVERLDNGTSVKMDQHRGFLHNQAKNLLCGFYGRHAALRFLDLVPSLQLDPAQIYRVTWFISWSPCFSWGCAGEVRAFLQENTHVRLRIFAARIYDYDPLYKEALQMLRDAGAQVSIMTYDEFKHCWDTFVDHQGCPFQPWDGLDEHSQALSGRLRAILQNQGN
Description: as §2
Desalted unmodified DNA oligonucleotides were purchased (Integrated DNA Technologies) at 1 or 5 μmol synthesis scale and dissolved in one of the buffers described below to give 10 mM solutions. ITC experiments were conducted at 25° C. using a MicroCal ITC200 (now Malvern Instruments) isothermal titration calorimeter. […] The ratio of protein to oligonucleotide concentration is usually 1:10. Titrations are made up of 30 individual additions. To prevent protein precipitation during the long time-scale of the experiment it was necessary to used improved ITC buffers. ITC buffer 1: 50 mM MES, pH 6.0, 100 mM NaCl, 200 μM EDTA, 1 mM β-mercaptoethanol and ITC buffer 2: 50 mM Na^+/K^+ phosphate, pH 6.0, 50 mM NaCl, 50 mM choline acetate, 2.5 mM TCEP, 200 μM EDTA with 30 mg/mL BSA. After preparation, ITC buffer 2 was frozen and defrosted before the experiments. ITC buffer 2* is freshly prepared buffer 2.
In contrast, A3A-E72 Å was used, particularly for oligos containing dC so that the complications of deamination can be avoided, although this mutation, notwithstanding no change to active-site structure, does cause a small but significant diminution in ligand binding^1 through loss of hydrogen bonding to the ligand. The inventors expect that the binding of inactivated A3BCTD-QM-ΔL3-AL1swap to the substrate will be close to or even worse than Km of 200 μM, which places substrate binding outside ITC applicability. One should emphasise that the composition of buffers used for NMR kinetic and ITC binding experiments are different, mainly because proteins in ITC experiments need to be at much higher concentration than for kinetic assays (10-100 μM for ITC versus 20-300 nM in kinetic experiments).

[7] = Lineweaver-Burk plot for the substrate/Dixon plot for the inhibitor
[8] = Non-linear regression analysis for both substrate and inhibitor
[9] = Linear analysis (Lineweaver-Burk plot)

T1 sequence (P31941 whole entry): as the sequence (P31941 whole entry E72A) above, with A72E counted along it

## 5'-TGCGCTT-46-GCGCT [46-hairpin-3]
[1]
  Ki: 290 ± 40 nM

## 5′-AT3FdZAT3 [FdZ-linear]
[2]; 400 μM 5′-T4CAT, 8 or 4 μM oligo, 300 or 200 nM enzyme, pH 6.0 (FIG. 6)
  inhibition of deamination of 5′-T4CAT (in words): more powerful inhibitor of A3BCTD-QM-ΔL3-AL1swap than dZ-linear oligo
[2]; [7]
  Ki: 2.1 ± 0.8 µM
[2]; [8]
  Ki: 4.4 ± 0.7 µM
  Vmax: 0.0126 ± 0.0008 µM/s
[2]
  inhibition effect: Km of 5′-AT3dCAT3 (150 μM) compared with apparent Ki: 35 fold
[1]
  Ki: 2400 ± 940 nM

## 5′-AT3dZAT3 [dZ-linear]
[2]; [7]
  Ki: 7.5 ± 1.7 µM
[2]; [8]
  Ki: 7 ± 1.3 µM
  Vmax: 0.0126 ± 0.0008 µM/s
[2]
  inhibition effect: Km of 5′-AT3dCAT3 (150 μM) compared with apparent Ki: 20 fold
[3]
  Kd: 11.4 ± 2.3 µM

## O=C1CC[C@H](O)CCN1[C@H]1C[C@H](O)[C@@H](CO)O1 [compound 34S, 1-[2-deoxy-β-D-erythro-pentofuranosyl]-(S)-5-hydroxyazepan-2-one]
[4]; 100 μM dC, pH 6.0, 25° C, with and without 5 min preincubation (FIG. 12)
  inhibitory potential against human CDA: some inhibitory potential

## O=C1NCC=CCN1[C@H]1C[C@H](O)[C@@H](CO)O1 [compound 46, 1-[2-deoxy-β-D-erythro-pentofuranosyl]-1,3,4,7-tetrahydro-2H-1,3-diazepin-2-one]
[4]
  Ki: 0.43 ± 0.08 µM

## O=c1ncccn1[C@H]1C[C@H](O)[C@@H](CO)O1 [dZ, 2′-deoxyzebularine]
[4]
  Ki: 10.7 ± 0.5 µM

## ATTTCATTT [5′-AT3dCAT3]
[5]; [9]
  Km: 200 ± 30 µM
  Vmax: 0.014 ± 0.002 µM/s
  kcat: 0.29 ± 0.04 s⁻¹
[5]; Non-linear regression analysis
  Km: 150 µM
  Vmax: 0.0126 ± 0.0008 µM/s
  kcat: 0.26 ± 0.02 s⁻¹
[6]; ITC buffer 1 (50 mM MES, pH 6.0)
  Kd: 200 ± 60 nM
[6]; ITC buffer 2 (Na+/K+ phosphate, pH 6.0, BSA; frozen and defrosted)
  Kd: 120 ± 30 nM
[6]; ITC buffer 2* (freshly prepared buffer 2)
  Kd: 130 ± 30 nM
